Marks after values point to notes of the source that are not given here.
Assays:
[1] = system: rat primary hippocampal neurons injured with Aβ 1-42; test: Survival of MAP-2 neurons in primary culture of hippocampal neurons injured with Aβ 1-42; format: cell-based; conditions: for Survival: Aβ1-42 20 μM/2.5 μM, percentage of control, Example 3
Description: (§1) Rat hippocampal neurons were cultured as described by Callizot et al. (2013) J. Neurosci. Res. 91706-716. Pregnant female rats of 17 days gestation (Rats Wistar; Janvier Labs France) were killed using a deep anesthesia with CO2 chamber followed by a cervical dislocation. Then, fetuses were removed from the uterus and immediately placed in ice-cold L15 Leibovitz medium with a 2% penicillin (10,000 U/ml) and streptomycin (10 mg/ml) solution (PS) and 1% bovine serum albumin (BSA). Hippocampal neurons were treated for 20 min at 37° C. with a trypsin-EDTA solution at a final concentration of 0.05% trypsin and 0.02% EDTA. The dissociation was stopped by adding Dulbecco's modified Eagle's medium (DMEM) with 4.5 g/l of glucose, containing DNAse I grade 11 (final concentration 0.5 mg/ml) and 10% fetal calf serum (FCS). Cells were mechanically dissociated by three forced passages through the tip of a 10-ml pipette and then centrifuged at 515×g for 10 min at 4° C. The supernatant was discarded, and the pellet was resuspended in a defined culture medium consisting of Neurobasal medium with a 2% solution of B27 supplement, 2 mmol/l of L-glutamine, 2% of PS solution, and 10 ng/ml of brain-derived neurotrophic factor (BDNF). Viable cells were counted in a Neubauer cytometer, using the trypan blue exclusion test. […] The medium was changed every 2 days.
The hippocampal neurons were exposed with Aβ solutions (see below) after 17 days of culture. The Aβ1-42 preparation was done following the procedure described by Callizot et al. (2013) J. Neurosci. Res. 91706-716. Briefly, Aβ1-42 peptide was dissolved in the defined culture medium mentioned above, at an initial concentration of 40 μM. This solution was gently agitated for 3 days at 37° C. in the dark and immediately used after being properly diluted in culture medium to the concentrations used (20 μM (plate 1) or 2.5 μM (plate 2) corresponding to 2 μM or 0.25 μM of oligomers (AβO) respectively). […]
The compound was preincubated one hour before […] application. The following conditions were assessed:
(§2) After permeabilization with 0.1% of saponin, cells were incubated for 2 h with:
a) chicken polyclonal antibody anti microtubule-associated-protein 2 (MAP-2), diluted at 1/1000 in PBS containing 1% fetal calf serum and 0.1% of saponin (this antibody allows the specific staining of neuronal cell bodies and neurites; and allow the study of neuronal cell death and neurite network).
For each condition, 30 pictures (representative of the whole well area) per well were taken using ImageXpress (Molecular Devices) at 20× magnification. All images were taken with the same acquisition parameters. Analyses were performed automatically by using Custom Module Editor (Molecular Devices).
Total number of neurons (neuron survival, number of MAP-2 positive neurons)
Rat hippocampal neurons were cultured as described by Callizot et al. (2013) J. Neurosci. Res. 91:706-716. Briefly, pregnant female rats of 17 days gestation (Rats Wistar; Janvier Labs France) were killed using a deep anesthesia with CO2 chamber and a cervical dislocation. Then, fetuses were removed from the uterus and immediately placed in ice-cold L15 Leibovitz medium with a 2% penicillin (10,000 U/ml) and streptomycin (10 mg/ml) solution (PS) and 1% bovine serum albumin (BSA). The hippocampi were treated for 20 min at 37° C. with a trypsin-EDTA solution at a final concentration of 0.05% trypsin and 0.02% EDTA.

[2] = system: rat primary hippocampal neurons injured with Aβ 1-42; test: Number of synapses (PSD95/SYN overlap) in primary culture of hippocampal neurons injured with Aβ 1-42; format: cell-based; conditions: for Synapses: Aβ1-42 20 μM/2.5 μM, percentage of control, Example 3
Description: as §1
The hippocampal neurons were exposed with Aβ solutions (see below) after 17 days of culture. The Aβ1-42 preparation was done following the procedure described by Callizot et al. (2013) J. Neurosci. Res. 91706-716. Briefly, Aβ1-42 peptide was dissolved in the defined culture medium mentioned above, at an initial concentration of 40 μM. This solution was gently agitated for 3 days at 37° C. in the dark and immediately used after being properly diluted in culture medium to the concentrations used (20 μM (plate 1) or 2.5 μM (plate 2) corresponding to 2 μM or 0.25 μM of oligomers (AβO) respectively).
Donecopride fumarate was solved in culture medium and preincubated 1 h before Aβ application. Aβ1-42 preparation was added to a final concentration of 20 or 2.5 μM (=2 μM or 0.25 μM of AβO, evaluated by automatic Western Blot) diluted in control medium in presence of Donecopride.
Donecopride fumarate (Donecopride) was tested on one culture in a 96 well plate (6 wells per conditions). The compound was preincubated one hour before […] application. The following conditions were assessed:
as §2
a) mouse monoclonal antibody anti post synaptic density 95 kDa (PSD95) at a dilution of 1/100 in PBS containing 1% fetal calf serum and 0.1% of saponin.
b) Rabbit polyclonal antibody anti-synaptophysin (SYN) at the dilution of 1/100 in PBS containing 1% fetal calf serum and 0.1% of saponin.
For each condition, 40 pictures per well were taken using ImageXpress (Molecular Devices) with 40× magnification. All images were taken with the same acquisition parameters.
Synapses evaluation was performed automatically by using Custom module editor (Molecular Devices).
Total number of synapses (overlapping between PSD95/SYN).
To assess the formation of synapses, the distribution of PSD-95, a post-synaptic marker, and synaptophysin, a pre-synaptic marker, was studied. A structure positive for both PSD-95 and synaptophysin staining was considered as a synapse.
Rat hippocampal neurons were cultured as described by Callizot et al. (2013) J. Neurosci. Res. 91:706-716.

[3] = Aβ 1-42 injured hippocampal neurons, Example 3 step 1

SMILES | Lowest active dose in this model ([1]; Aβ 1-42 injured hippocampal neurons, any parameter of Table 7) | Survival ([1]; donepezil 100 pM) | Survival ([1]; donepezil 1 nM) | Survival ([1]; donepezil 10 nM) | Survival ([1]; donepezil 50 nM) | Survival ([1]; donepezil 100 nM) | Survival ([1]; donepezil 500 nM) | Survival ([1]; donepezil 1 μM) | Survival ([1]; donepezil 10 μM) | Number of synapses normalized by the number of neurons (formation of new synapses) ([2]; Donepezil 1 μM, Aβ 1-42 injured hippocampal neurons, Example 1) | Synapses ([2]; donepezil 100 pM) | Synapses ([2]; donepezil 1 nM) | Synapses ([2]; donepezil 10 nM) | Synapses ([2]; donepezil 50 nM) | Synapses ([2]; donepezil 100 nM) | Synapses ([2]; donepezil 500 nM) | Synapses ([2]; donepezil 1 μM) | Synapses ([2]; donepezil 10 μM) | Lowest protective active dose: neuronal survival [1, 3] | Lowest protective active dose: synapse [2, 3]
COc1cc2c(cc1OC)C(=O)C(CC1CCN(Cc3ccccc3)CC1)C2 (centres unmarked) [Donepezil] | 1 nM | 69% | 75%* | 86%* | 91%* | 90%* | 86%* | 85%* | 85%* | had no effect | 68% | 72% | 81%* | 84%* | 87%* | 90%* | 91%* | 93%* | – | –
CCCCN1CCC(CCC(=O)c2cc(Cl)c(N)cc2OC)CC1 [RS67333, 1-(4-amino-5-chloro-2-methoxy-phenyl)-3-(1-butyl-4-piperidinyl)-1-propanone] | – | – | – | – | – | – | – | – | – | – | – | – | – | – | – | – | – | – | 50 nM | 1 µM

Source: patent US20210338647A1, “Combination of Acetylcholinesterase Inhibitor and 5-HT4 Receptor Agonist As Neuroprotective Agent In the Treatment of Neurodegenerative Diseases” (UNIVERSITE DE CAEN NORMANDIE, priority 2018, published 2021)
